What is called Kd is the free concentration of one partner at which half of the binding sites on the other are occupied at equilibrium, for simple one-to-one binding. Low readings indicate tighter binding, high ones weaker binding. Broadly, the solubility is the concentration that dissolves in the medium under given conditions. Read a low solubility as little dissolved substance.

Converted amounts (≈) assume the structure as drawn. The source made the active and inactive calls. No cut-off for these calls is given here. Square brackets hold non-standard residues; d marks the D form. Peptide text beside a SMILES is read from it. * marks the point of attachment. X1 = N=C(N)NCCC[C@H](CN)C(=O)*; β3hK = NCCCC[C@H](N)CC(=O)O

A short description of series [1]: Induction of programmed cell death in human MEC1 cells at 200 uM after 2 hrs by Annexin-V/propidium iodide staining based FACS analysis. In kind it is functional. In general terms: A flow cytometer gives signals particle by particle.
The target of series [2] is Leukocyte surface antigen CD47 (Homo sapiens, UniProt Q08722). The series can be described thus: Binding affinity to CD47 receptor in human biotinylated MEC1 cell membranes by biolayer interferometry.
Sequence of Leukocyte surface antigen CD47 (Q08722 whole entry): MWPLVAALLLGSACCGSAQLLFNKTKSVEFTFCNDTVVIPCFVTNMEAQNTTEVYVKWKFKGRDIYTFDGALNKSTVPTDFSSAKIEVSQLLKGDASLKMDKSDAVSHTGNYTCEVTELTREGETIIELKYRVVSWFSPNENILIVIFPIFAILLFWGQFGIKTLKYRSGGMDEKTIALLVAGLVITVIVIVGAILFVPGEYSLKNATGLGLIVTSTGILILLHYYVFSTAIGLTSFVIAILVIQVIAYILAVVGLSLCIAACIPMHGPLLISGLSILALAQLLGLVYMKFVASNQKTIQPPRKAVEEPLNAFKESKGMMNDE
Series [3] is described as follows: Aqueous solubility of compound in 50 mM sodium succinate buffer at 2 mM at pH 5 by 1D 1H NMR spectroscopic analysis. In kind it is physicochemical. As to conditions: for solubility: buffer, pH 5, 2000 µM.
Series [4] can be described thus: Induction of cell death in human U937 cells at 300 uM after 2 hrs by Annexin-V/propidium iodide staining based FACS analysis. In kind it is functional, U-937.
Series [5] in a line: Aqueous solubility of compound in 50 mM sodium succinate buffer at >1 mM at pH 5 by 1D 1H NMR spectroscopic analysis. It is filed as physicochemical.
A short description of series [6]: Induction of cell death in human CEM cells at 300 uM after 2 hrs by Annexin-V/propidium iodide staining based FACS analysis. It is filed as functional, CCRF-CEM.
Series [7] can be described thus: Induction of cell death in human RPMI8866 cells at 300 uM after 2 hrs by Annexin-V/propidium iodide staining based FACS analysis. It is filed as functional, RPMI-8866.
Series [8] deals with CLL. The series can be described thus: Induction of programmed cell death in human CLL cells harboring ATM 11q deletion mutant at 50 to 400 uM after 2 hrs by Annexin-V/propidium iodide staining based FACS analysis. In kind it is functional.
Series [9] in a line: Induction of cell death in human HeLa cells at 300 uM after 2 hrs by Annexin-V/propidium iodide staining based FACS analysis. In kind it is functional.
For series [10], the system named is CLL. The series can be described thus: Induction of programmed cell death in human CLL cells at 50 to 400 uM after 2 hrs by Annexin-V/propidium iodide staining based FACS analysis. It is filed as functional.
Series [11] is described as follows: Induction of cell death in human MCF7 cells at 300 uM after 2 hrs by Annexin-V/propidium iodide staining based FACS analysis. It is filed as functional.
Series [12] is described as follows: Cytotoxicity against human B lymphocytes assessed as cell death at 50 to 400 uM after 2 hrs by Annexin-V/propidium iodide staining based FACS analysis. It is filed as toxicity.
The nature of series [13]: Induction of cell death in human LNCAP cells at 300 uM after 2 hrs by Annexin-V/propidium iodide staining based FACS analysis. It is filed as functional.
The nature of series [14]: Induction of cell death in human RPMI8226 cells at 300 uM after 2 hrs by Annexin-V/propidium iodide staining based FACS analysis. In kind it is functional, RPMI-8226.
Series [15] can be described thus: Induction of cell death in human AU565 cells at 300 uM after 2 hrs by Annexin-V/propidium iodide staining based FACS analysis. It is filed as functional.
Series [16] can be described thus: Induction of cell death in human HBL100 cells at 300 uM after 2 hrs by Annexin-V/propidium iodide staining based FACS analysis. It is filed as functional, HBL-100.
Series [17] can be described thus: Induction of cell death in human JM1 cells at 300 uM after 2 hrs by Annexin-V/propidium iodide staining based FACS analysis. It is filed as functional.
Series [18] is described as follows: Induction of cell death in human Raji cells at 300 uM after 2 hrs by Annexin-V/propidium iodide staining based FACS analysis. It is filed as functional.
Series [19] concerns CLL. The series can be described thus: Induction of programmed cell death in human CLL cells harboring TP53 17p deletion mutant at 50 to 400 uM after 2 hrs by Annexin-V/propidium iodide staining based FACS analysis. In kind it is functional.
The nature of series [20]: Induction of cell death in human MEC1 cells at 300 uM after 2 hrs by Annexin-V/propidium iodide staining based FACS analysis. In kind it is functional.
A short description of series [21]: Induction of cell death in human Jurkat cells at 300 uM after 2 hrs by Annexin-V/propidium iodide staining based FACS analysis. In kind it is functional.
Series [22] is described as follows: Drug degradation in human serum up to 5 mins by HPLC analysis. In kind it is ADME.
Series [23] can be described thus: Induction of cell death in human OVCAR10 cells at 300 uM after 2 hrs by Annexin-V/propidium iodide staining based FACS analysis. It is filed as functional.
Series [24] can be described thus: Induction of cell death in human A549 cells at 300 uM after 2 hrs by Annexin-V/propidium iodide staining based FACS analysis. In kind it is functional.
A short description of series [25]: Induction of cell death in human Ramos cells at 300 uM after 2 hrs by Annexin-V/propidium iodide staining based FACS analysis. In kind it is functional.
Series [26] in a line: Induction of cell death in human MDA-MB-231 cells at 300 uM after 2 hrs by Annexin-V/propidium iodide staining based FACS analysis. It is filed as functional.
Series [27] can be described thus: Metabolic stability in human serum at 10 mg/ml at 37 degC after 2 hrs by HPLC analysis. It is filed as ADME.
Series [28] can be described thus: Drug degradation in human serum at 10 mg/ml after 2 hrs by HPLC analysis. It is filed as ADME.

Regarding `CSCC[C@H](NC(=O)[C@@H](NC(=O)[C@@H](NC(=O)[C@H](C)NC(=O)[C@H](Cc1ccccc1)NC(=O)[C@H](CCCNC(=N)N)NC(=O)[C@H](N)CCCCN)C(C)C)C(C)C)C(=O)N[C@@H](Cc1c[nH]c2ccccc12)C(=O)N[C@@H](CCCCN)C(=O)N[C@H](CCCCN)C(=O)O`, in series [1], the Activity is 0%.

`CC(C)[C@H](NC(=O)[C@H](Cc1ccc(O)cc1)NC(=O)[C@H](Cc1ccccc1)NC(=O)[C@H](CCCNC(=N)N)NC(=O)[C@H](N)CCCCN)C(=O)N[C@H](C(=O)N[C@@H](C)C(=O)N[C@@H](Cc1c[nH]c2ccccc12)C(=O)N[C@@H](CCCCN)C(=O)N[C@H](CCCCN)C(=O)O)C(C)C` (H-[dK]RFYVVAWK[dK]-OH) returned an Activity in series [1] of 6%.

In the case of `CSCC[C@H](NC(=O)[C@@H](NC(=O)[C@@H](NC(=O)[C@H](Cc1ccc(O)cc1)NC(=O)[C@H](C)NC(=O)[C@H](CCCNC(=N)N)NC(=O)[C@H](N)CCCCN)C(C)C)C(C)C)C(=O)N[C@@H](Cc1c[nH]c2ccccc12)C(=O)N[C@@H](CCCCN)C(=O)N[C@H](CCCCN)C(=O)O` (H-[dK]RAYVVMWK[dK]-OH), the Activity in [1] is given as 6%.

In series [1], `CSCC[C@H](NC(=O)[C@@H](NC(=O)[C@@H](NC(=O)[C@H](Cc1ccc(O)cc1)NC(=O)[C@H](Cc1ccccc1)NC(=O)[C@H](CCCNC(=N)N)NC(=O)[C@H](N)CCCCN)C(C)C)C(C)C)C(=O)N[C@@H](C)C(=O)N[C@@H](CCCCN)C(=O)N[C@H](CCCCN)C(=O)O` (H-[dK]RFYVVMAK[dK]-OH) gave an Activity of 35%.

`CSCC[C@H](NC(=O)[C@@H](NC(=O)[C@@H](NC(=O)[C@H](Cc1ccc(O)cc1)NC(=O)[C@H](Cc1ccccc1)NC(=O)[C@H](C)NC(=O)[C@H](N)CCCCN)C(C)C)C(C)C)C(=O)N[C@@H](Cc1c[nH]c2ccccc12)C(=O)N[C@@H](CCCCN)C(=O)N[C@H](CCCCN)C(=O)O` (H-[dK]AFYVVMWK[dK]-OH) had an Activity in [1] of 44%.

The molecule `CCCCC(NC(=O)[C@@H](NC(=O)[C@@H](NC(=O)[C@H](Cc1ccc(O)cc1)NC(=O)[C@H](Cc1ccccc1)NC(=O)[C@H](CCCNC(=N)N)NC(=O)[C@H](N)CCCCN)C(C)C)C(C)C)C(=O)N[C@@H](Cc1c[nH]c2ccccc12)C(=O)N[C@@H](CCCCN)C(=O)N[C@H](CCCCN)C(=O)O` (stereo not given in full) displayed an Activity in [1] of 47%. In series [2], this molecule registered a Kd of 18 µM.

On to `CSCC[C@H](NC(=O)[C@@H](NC(=O)[C@@H](NC(=O)[C@H](Cc1ccc(O)cc1)NC(=O)[C@H](Cc1ccccc1)NC(=O)[C@@H](N)CCCNC(=N)N)C(C)C)C(C)C)C(=O)N[C@@H](Cc1c[nH]c2ccccc12)C(=O)N[C@@H](CCCCN)C(=O)O`, for which the Activity in [1] amounted to 13%. Moreover, the solubility at 2000 µM in series [3] (50 mM sodium succinate buffer, pH 5) came to 30 µM (≈ 33.9 µg/mL).

`CSCC[C@H](NC(=O)[C@@H](NC(=O)[C@@H](NC(=O)[C@H](Cc1ccc(O)cc1)NC(=O)[C@H](Cc1ccccc1)NC(=O)[C@H](CCCNC(=N)N)NC(=O)[C@@H](N)CCCCN)C(C)C)C(C)C)C(=O)N[C@@H](Cc1c[nH]c2ccccc12)C(=O)N[C@@H](CCCCN)C(=O)N[C@@H](CCCCN)C(=O)O`: the Activity in series [4] was 30%; in series [6], 30%; in series [1], 23%; in series [7] it was 30%; in series [9], 30%; in [11], 30%. For the same molecule, the Activity result is on record as “Non-Toxic” in series [12]; 30% in series [13]; 30% in [14]; 30% in series [15]; 30% in series [16]; 30% in series [17]. In addition, the Activity in series [18], in [20], in series [21], in series [23], in series [24] and in series [25] was 30% throughout. Besides, the Activity in [26] worked out at 30%. Besides, in [5], the solubility entry was “Soluble”. The outcome in the series on CLL [8], with CLL [10] and in the series on CLL [19] was Active. Also, in series [22], the Stability result is recorded as “Unstable”.

For the molecule `CSCC[C@H](NC(=O)[C@@H](NC(=O)[C@@H](NC(=O)[C@H](Cc1ccc(O)cc1)NC(=O)[C@H](Cc1ccccc1)NC(=O)[C@@H](CN)CCCNC(=N)N)C(C)C)C(C)C)C(=O)N[C@@H](Cc1c[nH]c2ccccc12)C(=O)N[C@@H](CCCCN)CC(=O)O` (X1-FYVVMW[β3hK]-OH), the Stability result in [27] was “Stable”. In addition, the solubility result in series [3] was “Insoluble”.

`CSCC[C@H](NC(=O)[C@@H](NC(=O)[C@H](C)NC(=O)[C@H](Cc1ccc(O)cc1)NC(=O)[C@H](Cc1ccccc1)NC(=O)[C@H](CCCNC(=N)N)NC(=O)[C@H](N)CCCCN)C(C)C)C(=O)N[C@@H](Cc1c[nH]c2ccccc12)C(=O)N[C@@H](CCCCN)C(=O)N[C@H](CCCCN)C(=O)O` (H-[dK]RFYAVMWK[dK]-OH): in series [1], the Activity worked out at 12%.

In turn, `CSCC[C@H](NC(=O)[C@@H](NC(=O)[C@@H](NC(=O)[C@H](Cc1ccc(O)cc1)NC(=O)[C@H](Cc1ccccc1)NC(=O)[C@H](CCCNC(=N)N)NC(=O)[C@H](N)CCCCN)C(C)C)C(C)C)C(=O)N[C@@H](Cc1c[nH]c2ccccc12)C(=O)N[C@@H](C)C(=O)N[C@H](CCCCN)C(=O)O` (H-[dK]RFYVVMWA[dK]-OH) came in with an Activity in [1] of 46%.

For `CSCC[C@H](NC(=O)[C@H](C)NC(=O)[C@@H](NC(=O)[C@H](Cc1ccc(O)cc1)NC(=O)[C@H](Cc1ccccc1)NC(=O)[C@H](CCCNC(=N)N)NC(=O)[C@H](N)CCCCN)C(C)C)C(=O)N[C@@H](Cc1c[nH]c2ccccc12)C(=O)N[C@@H](CCCCN)C(=O)N[C@H](CCCCN)C(=O)O` (H-[dK]RFYVAMWK[dK]-OH), the Activity in series [1] turned out to be 30%.

Regarding `CSCC[C@H](NC(=O)[C@@H](NC(=O)[C@@H](NC(=O)[C@H](Cc1ccc(O)cc1)NC(=O)[C@H](Cc1ccccc1)NC(=O)[C@H](CCCNC(=N)N)NC(C)=O)C(C)C)C(C)C)C(=O)N[C@@H](Cc1c[nH]c2ccccc12)C(=O)N[C@@H](CCCCN)C(N)=O`, the Activity in [1] is listed as 27%. Further, the Stability entry in [27] is listed as “Stable”. In addition, the solubility entry in series [3] is “Insoluble”.

For the molecule H-KRFYGGMWKK-OH, the Activity in [1] worked out at 2%.

In the case of Ac-KRFYVVMWKK-NH2, in series [5], the solubility entry is reported as “Soluble”. Besides, in series [1], the Activity amounted to 30%. For the same molecule, the Stability entry in [28] is given as “Unstable”.

These data come from ChEMBL document CHEMBL3853322, “Thrombospondin-1 Mimetic Agonist Peptides Induce Selective Death in Tumor Cells: Design, Synthesis, and Structure-Activity Relationship Studies” (J Med Chem, 2016).
